Source: patent US20220079894A1, “STABLE PHARMACEUTICAL COMPOSITIONS” (priority 2020, published 2022)
Where a name gives a salt, the structure may show the parent alone.

Assay: NDMA content of Metformin Extended Release Tablets by LC-MS
Format: physicochemical
Settings: active substance of lot XP9004
Method: Of particular concern is the level of NDMA in a class of anti-diabetic drugs including metformin hydrochloride tablets. Since these drugs are administered over a long period of time to patients, the amount of NDMA impurity in such products is of particular concern. It has been established that the 96 ng is the Acceptable Daily Intake Limit (ADI) for N-Nitrosodimethylamine (NDMA) in Metformin Hydrochloride tablets. The levels of NDMA in metformin hydrochloride tablets can be determined by analytical methods like Liquid Chromatography-Mass Spectrometry. Other drugs that can have similar issues are anti-diabetic drugs, a drug to treat Gastroesophageal Reflux Diseases (GERD) or an Angiotensis II receptor antagonist drug (ARBs).
This meant that the potential daily exposure of NDMA in the product was 160 ng/day

CN(C)C(=N)N=C(N)N [active substance, Metformin Hydrochloride]
NDMA in the active substance used in the lot: no detectable NDMA
